# Measurements published in patent US20250186437A1, “CARBOLINE COMPOUNDS AND USE THEREOF” (PTC Therapeutics, Inc., priority 2021, published 2025).
# System: MOLM-13 cells
# Test: MOLM-13 Cell Proliferation Assay (indicator of DHODH inhibition)
# Assay type: cell-based
# Conditions: Homo sapiens, 72 Hours of culture, CellTiter-Glo, no uridine
# Procedure, shortened: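 Low-passage MOLM-13 cells (10^4/well) in RPMI 1640 + 10% FBS exposed to compound (0.5% DMSO final) for 72 h at 37 °C, 5% CO2. Viability read by CellTiter-Glo luminescence; growth reflects de novo pyrimidine synthesis dependent on DHODH.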
structure (smiles),measurement,value
"CN1CCN(c2ncc([C@H]3c4[nH]c5ccc(-n6nccn6)cc5c4CCN3c3nc(C(F)(F)F)nc(C(F)(F)F)n3)cn2)CC1 [Compound 501, (1S)-2-[4,6-bis(trifluoromethyl)-1,3,5-triazin-2-yl]-1-[2-(4-methylpiperazin-1-yl)pyrimidin-5-yl]-6-(2H-1,2,3-triazol-2-yl)-2,3,4,9-tetrahydro-1H-pyrido[3,4-b]indole]",IC50,1.4 nM
"Cc1ccc(C2c3[nH]c4ccc(-n5nccn5)cc4c3CCN2c2nccc(C(F)(F)F)n2)c(F)c1F (stereo not shown) [Compound 502, 1-(2,3-difluoro-4-methylphenyl)-6-(2H-1,2,3-triazol-2-yl)-2-[4-(trifluoromethyl)pyrimidin-2-yl]-2,3,4,9-tetrahydro-1H-pyrido[3,4-b]indole]",IC50,2.1 nM
"C[C@@H]1CN(c2ncc([C@H]3c4[nH]c5ccc(Cl)cc5c4CCN3c3nc(C(F)(F)F)cc(C(F)(F)F)n3)cn2)C[C@H](C)N1 [Compound 503, (1S)-2-[4,6-bis(trifluoromethyl)pyrimidin-2-yl]-6-chloro-1-{2-[(3R,5S)-3,5-dimethylpiperazin-1-yl]pyrimidin-5-yl}-2,3,4,9-tetrahydro-1H-pyrido[3,4-b]indole]",IC50,7.3 nM
"COC(=O)c1nc(N2CCc3c([nH]c4ccc(Cl)cc34)[C@@H]2c2ccc(C)c(F)c2F)nc(C(F)(F)F)n1 [Compound 504, methyl 4-[(1S)-6-chloro-1-(2,3-difluoro-4-methylphenyl)-1,3,4,9-tetrahydro-2H-pyrido[3,4-b]indol-2-yl]-6-(trifluoromethyl)-1,3,5-triazine-2-carboxylate]",IC50,30.6 nM
"Cc1ccc([C@H]2c3[nH]c4ccc(Cl)cc4c3CCN2c2nc(C(F)(F)F)nc(C(Cl)(Cl)Cl)n2)c(F)c1F [Compound 505, (1S)-6-chloro-1-(2,3-difluoro-4-methylphenyl)-2-[4-(trichloromethyl)-6-(trifluoromethyl)-1,3,5-triazin-2-yl]-2,3,4,9-tetrahydro-1H-pyrido[3,4-b]indole]",IC50,1.5 nM
"CN1CCN(c2ncc([C@H]3c4[nH]c5ccc(-n6nccn6)cc5c4CCN3c3ncnc(C(F)(F)F)n3)cn2)CC1 [Compound 506, (1S)-1-[2-(4-methylpiperazin-1-yl)pyrimidin-5-yl]-6-(2H-1,2,3-triazol-2-yl)-2-[4-(trifluoromethyl)-1,3,5-triazin-2-yl]-2,3,4,9-tetrahydro-1H-pyrido[3,4-b]indole]",IC50,5.7 nM
"FC(F)c1nc(N2CCc3c([nH]c4ccc(Cl)cc34)[C@@H]2c2cnc(N3CCOCC3)nc2)nc(C(F)(F)F)n1 [Compound 507, (1S)-6-chloro-2-[4-(difluoromethyl)-6-(trifluoromethyl)-1,3,5-triazin-2-yl]-1-[2-(morpholin-4-yl)pyrimidin-5-yl]-2,3,4,9-tetrahydro-1H-pyrido[3,4-b]indole]",IC50,0.6 nM
"CN1CCN(c2ncc([C@H]3c4[nH]c5ccc(Cl)cc5c4CCN3c3nc(C(F)F)nc(C(F)(F)F)n3)cn2)CC1 [Compound 508, (1S)-6-chloro-2-[4-(difluoromethyl)-6-(trifluoromethyl)-1,3,5-triazin-2-yl]-1-[2-(4-methylpiperazin-1-yl)pyrimidin-5-yl]-2,3,4,9-tetrahydro-1H-pyrido[3,4-b]indole]",IC50,0.8 nM
"CN1CCN(c2ncc([C@H]3c4[nH]c5ccc(Cl)cc5c4CCN3c3nc(N4CCOCC4)nc(C(F)(F)F)n3)cn2)CC1 [Compound 509, (1S)-6-chloro-1-[2-(4-methylpiperazin-1-yl)pyrimidin-5-yl]-2-[4-(morpholin-4-yl)-6-(trifluoromethyl)-1,3,5-triazin-2-yl]-2,3,4,9-tetrahydro-1H-pyrido[3,4-b]indole]",IC50,8.1 nM
"Cc1ccc([C@H]2c3[nH]c4ccc(Cl)cc4c3CCN2c2nc(C(F)F)nc(C(F)(F)F)n2)c(F)c1F [Compound 510, (1S)-6-chloro-1-(2,3-difluoro-4-methylphenyl)-2-[4-(difluoromethyl)-6-(trifluoromethyl)-1,3,5-triazin-2-yl]-2,3,4,9-tetrahydro-1H-pyrido[3,4-b]indole]",IC50,0.1 nM
"C[C@@H]1CN(c2ncc([C@H]3c4[nH]c5ccc(Cl)cc5c4CCN3c3nc(C(F)(F)F)cc(C(F)(F)F)n3)cn2)CCN1 [Compound 511, (1S)-2-[4,6-bis(trifluoromethyl)pyrimidin-2-yl]-6-chloro-1-{2-[(3R)-3-methylpiperazin-1-yl]pyrimidin-5-yl}-2,3,4,9-tetrahydro-1H-pyrido[3,4-b]indole]",IC50,3.8 nM
"FC(F)(F)c1cc(C(F)(F)F)nc(N2CCc3c([nH]c4ccc(Cl)cc34)[C@@H]2c2cnc(N3CCNC4(CC4)C3)nc2)n1 [Compound 512, (1S)-2-[4,6-bis(trifluoromethyl)pyrimidin-2-yl]-6-chloro-1-[2-(4,7-diazaspiro[2.5]octan-7-yl)pyrimidin-5-yl]-2,3,4,9-tetrahydro-1H-pyrido[3,4-b]indole]",IC50,1.6 nM
"CN1CCN(c2ccc(C3c4[nH]c5ccc(-n6nccn6)cc5c4CCN3c3nccc(C(F)(F)F)n3)cn2)CC1 (stereo not shown) [Compound 513, 1-[6-(4-methylpiperazin-1-yl)pyridin-3-yl]-6-(2H-1,2,3-triazol-2-yl)-2-[4-(trifluoromethyl)pyrimidin-2-yl]-2,3,4,9-tetrahydro-1H-pyrido[3,4-b]indole]",IC50,11.2 nM
"FC(F)(F)c1cc(C(F)(F)F)nc(N2CCc3c([nH]c4ccc(-n5nccn5)cc34)[C@@H]2c2cnc(N3CCOCC3)nc2)n1 [Compound 514, (1S)-2-[4,6-bis(trifluoromethyl)pyrimidin-2-yl]-1-[2-(morpholin-4-yl)pyrimidin-5-yl]-6-(2H-1,2,3-triazol-2-yl)-2,3,4,9-tetrahydro-1H-pyrido[3,4-b]indole]",IC50,0.6 nM
"FC(F)(F)c1nc(N2CCc3c([nH]c4ccc(-n5nccn5)cc34)[C@@H]2c2cnc(N3CCOCC3)nc2)nc(C(F)(F)F)n1 [Compound 516, (1S)-2-[4,6-bis(trifluoromethyl)-1,3,5-triazin-2-yl]-1-[2-(morpholin-4-yl)pyrimidin-5-yl]-6-(2H-1,2,3-triazol-2-yl)-2,3,4,9-tetrahydro-1H-pyrido[3,4-b]indole]",IC50,1.4 nM
"C[C@H]1CN(c2ncc([C@H]3c4[nH]c5ccc(Cl)cc5c4CCN3c3nc(C(F)(F)F)cc(C(F)(F)F)n3)cn2)CCN1 [Compound 517, (1S)-2-[4,6-bis(trifluoromethyl)pyrimidin-2-yl]-6-chloro-1-{2-[(3S)-3-methylpiperazin-1-yl]pyrimidin-5-yl}-2,3,4,9-tetrahydro-1H-pyrido[3,4-b]indole]",IC50,3.2 nM
"Cc1ccc([C@H]2c3[nH]c4ccc(Br)cc4c3CCN2c2nc(C(F)(F)F)cc(C(F)(F)F)n2)c(F)c1F [Compound 518, (1S)-2-[4,6-bis(trifluoromethyl)pyrimidin-2-yl]-6-bromo-1-(2,3-difluoro-4-methylphenyl)-2,3,4,9-tetrahydro-1H-pyrido[3,4-b]indole]",IC50,0.8 nM
"Cc1ccc([C@H]2c3[nH]c4ccc(-n5nccn5)cc4c3CCN2c2nc(C(F)(F)F)cc(C(F)(F)F)n2)c(F)c1F [Compound 519, (1S)-2-[4,6-bis(trifluoromethyl)pyrimidin-2-yl]-1-(2,3-difluoro-4-methylphenyl)-6-(2H-1,2,3-triazol-2-yl)-2,3,4,9-tetrahydro-1H-pyrido[3,4-b]indole]",IC50,0.3 nM
"Cc1cnn(-c2ccc3[nH]c4c(c3c2)CCN(c2nc(C(F)(F)F)cc(C(F)(F)F)n2)[C@H]4c2ccc(C)c(F)c2F)n1 [Compound 520, (1S)-2-[4,6-bis(trifluoromethyl)pyrimidin-2-yl]-1-(2,3-difluoro-4-methylphenyl)-6-(4-methyl-2H-1,2,3-triazol-2-yl)-2,3,4,9-tetrahydro-1H-pyrido[3,4-b]indole]",IC50,1.7 nM
"Cc1ccc([C@H]2c3[nH]c4ccc(Cl)cc4c3CCN2c2nc(CO)nc(C(F)(F)F)n2)c(F)c1F [Compound 521, {4-[(1S)-6-chloro-1-(2,3-difluoro-4-methylphenyl)-1,3,4,9-tetrahydro-2H-pyrido[3,4-b]indol-2-yl]-6-(trifluoromethyl)-1,3,5-triazin-2-yl}methanol]",IC50,3.3 nM
"COc1ncc([C@H]2c3[nH]c4ccc(Cl)cc4c3CCN2c2nc(C(F)(F)F)nc(C(F)(F)F)n2)cn1 [Compound 522, (1S)-2-[4,6-bis(trifluoromethyl)-1,3,5-triazin-2-yl]-6-chloro-1-(2-methoxypyrimidin-5-yl)-2,3,4,9-tetrahydro-1H-pyrido[3,4-b]indole]",IC50,0.7 nM
"Cc1ccc([C@H]2c3[nH]c4ccc(Br)cc4c3CCN2c2nc(C(F)(F)F)nc(C(F)(F)F)n2)c(F)c1F [Compound 523, (1S)-2-[4,6-bis(trifluoromethyl)-1,3,5-triazin-2-yl]-6-bromo-1-(2,3-difluoro-4-methylphenyl)-2,3,4,9-tetrahydro-1H-pyrido[3,4-b]indole]",IC50,0.6 nM
"Cc1ccc([C@H]2c3[nH]c4ccc(-n5nccn5)cc4c3CCN2c2nc(C(F)(F)F)nc(C(F)(F)F)n2)c(F)c1F [Compound 524, (1S)-2-[4,6-bis(trifluoromethyl)-1,3,5-triazin-2-yl]-1-(2,3-difluoro-4-methylphenyl)-6-(2H-1,2,3-triazol-2-yl)-2,3,4,9-tetrahydro-1H-pyrido[3,4-b]indole]",IC50,0.3 nM
"Cc1cnn(-c2ccc3[nH]c4c(c3c2)CCN(c2nc(C(F)(F)F)nc(C(F)(F)F)n2)[C@H]4c2ccc(C)c(F)c2F)n1 [Compound 525, (1S)-2-[4,6-bis(trifluoromethyl)-1,3,5-triazin-2-yl]-1-(2,3-difluoro-4-methylphenyl)-6-(4-methyl-2H-1,2,3-triazol-2-yl)-2,3,4,9-tetrahydro-1H-pyrido[3,4-b]indole]",IC50,1.3 nM
"Cc1ccc([C@H]2c3[nH]c4ccc(Cl)cc4c3CCN2c2nc(CF)nc(C(F)(F)F)n2)c(F)c1F [Compound 526, (1S)-6-chloro-1-(2,3-difluoro-4-methylphenyl)-2-[4-(fluoromethyl)-6-(trifluoromethyl)-1,3,5-triazin-2-yl]-2,3,4,9-tetrahydro-1H-pyrido[3,4-b]indole]",IC50,0.5 nM
